Source: patent publication US3992391A, “1,3-Disubstituted thiourea compounds and preparation thereof” (priority 1972, dated 1976)

Legend:
[1] = Effect on tissue-toxic hypoxia (survival time after KCN i.p.), life-prolonging rate (1); assay type: in vivo, male mice (dd-strain); conditions: Mus musculus, po, 100 mg/kg oral, 1 hour before KCN 10 mg/kg i.p.; untreated group 140 seconds; read-out: Life-prolonging rate (1): increase percent of survival time
[2] = Effect on hypotonic hypoxia (survival time in nitrogen gas containing 1.5 % oxygen), life-prolonging rate (2); assay type: in vivo, male mice (dd-strain); conditions: Mus musculus, po, 100 mg/kg oral, 1 hour before 1.5 % oxygen in nitrogen; untreated group 8 minutes; read-out: Life-prolonging rate (2): increase percent of survival time
Procedure: b. Effect on hyptonic hypoxia
To male mice (dd-strain) weighting 15 to 22 g were administered orally the present compounds in the dosage of 100 mg/kg, and after one hour, the mice were taken to a closed room, air in which was substituted with nitrogen gas containing 1.5 % oxygen by ventilating the nitrogen gas for 2 minutes. As sending a mixed gas into the room, the time for death was measured. The increase percent of survival time to the average survival time (8 minutes) of the group, to which the present compounds were not administered, is shown in Table II as life-prolonging rate (2).

Structure (SMILES) | ILS at 100 mg/kg [1] [%] | ILS at 100 mg/kg [2] [%]
CN(C)CCCNC(=S)Nc1cccnc1 | 35 | 10
S=C(NCCSCc1ccccc1)Nc1cccnc1 | 64 | 55
CCN(CC)CCCNC(=S)Nc1cccnc1 | 28 | 11
OCCCNC(=S)Nc1cccnc1 | 115 | 100
CC(C)(CO)NC(=S)Nc1cccnc1 | 67 | 50
CC(O)CNC(=S)Nc1cccnc1 (stereo not shown) | 75 | 60
OCC(CO)(CO)NC(=S)Nc1cccnc1 | 61 | 59
COCCCNC(=S)Nc1cccnc1 | 35 | 25
O=C(O)CCCNC(=S)Nc1cccnc1 | 127 | 78
S=C(NCCSSCCNC(=S)Nc1cccnc1)Nc1cccnc1 | 30 | 5
CN(C)CCNC(=S)Nc1cccnc1 | 61 | 46
CCN(CC)CCNC(=S)Nc1cccnc1 | 89 | 40
S=C(NNc1ccccc1)Nc1cccnc1 | 125 | 108
CN(C)NC(=S)Nc1cccnc1 | 81 | 63
S=C(Nc1cccnc1)NN1CCN(Cc2ccccc2)CC1 | 124 | 80
S=C(NN=Cc1ccccn1)Nc1cccnc1 | 92 | 81
S=C(NN=Cc1cccnc1)Nc1cccnc1 | 135 | 114
OCCNC(=S)Nc1ccncc1 | 242 | 158
CN(C)CCCNC(=S)Nc1ccncc1 | 37 | 21
CN(Cc1ccccc1)NC(=S)Nc1ccncc1 | 156 | 58
O=C(O)CCCNC(=S)Nc1ccccn1 | 72 | 53
S=C(NCCSCc1ccccc1)Nc1ccccn1 | 86 | 65
CCN(CC)CCNC(=S)Nc1ccccn1 | 20 | 16
